Assay results published in PMC6691788, “Design and synthesis of phthalazine-based compounds as potent anticancer agents with potential antiangiogenic activity via VEGFR-2 inhibition” (Journal of Enzyme Inhibition and Medicinal Chemistry, 2019).

What was measured:
Assay in all cases: NCI 60 cell panel SRB screen
Type in all cases: cell-based
[1] = system: SK-MEL-28; conditions: Homo sapiens
[2] = system: SK-MEL-5; conditions: Homo sapiens
[3] = system: UACC-257; conditions: Homo sapiens
[4] = system: UACC-62
[5] = system: IGROV1; conditions: Homo sapiens, IGROV-1
[6] = system: SK-OV-3; conditions: Homo sapiens
[7] = system: 786-0; conditions: Homo sapiens
[8] = system: ACHN; conditions: Homo sapiens
[9] = system: SN12C; conditions: Homo sapiens
[10] = system: PC-3; conditions: Homo sapiens
[11] = system: MDA-MB 231/ATCC; conditions: Homo sapiens
[12] = system: HS 578T; conditions: Homo sapiens
[13] = system: BT-549; conditions: Homo sapiens
[14] = 5 log dose, 48 h, read-out: LC50 (the source's name)
[15] = single dose 10 μM, read-out: percent cell growth promotion

## O=C(Nc1ccc(Cl)cc1)Nc1ccc(Nc2nncc3ccccc23)cc1 [Compound 6b, 1–(4-Chlorophenyl)-3–(4-(phthalazin-1-ylamino)phenyl)urea]
[1]; SK-MEL-28, read-out: percent cell growth promotion
  activity at 10 µM: 44.1%
[1]; SK-MEL-28, 5 log dose, 48 h, read-out: LC50 (the source's name)
  CC50: 51.5 µM
[2]; SK-MEL-5
  GI50: 2.31 µM
[2]; SK-MEL-5, read-out: TGI
  IC (TGI): 6.82 µM
[2]; SK-MEL-5, read-out: percent cell growth promotion
  activity at 10 µM: 7.12%
[2]; SK-MEL-5, 5 log dose, 48 h, read-out: LC50 (the source's name)
  CC50: 24.7 µM
[3]; UACC-257
  GI50: 3.41 µM
[3]; UACC-257, read-out: TGI
  IC (TGI): 10.8 µM
[3]; UACC-257, read-out: percent cell growth promotion
  activity at 10 µM: 15.3%
[3]; UACC-257, 5 log dose, 48 h, read-out: LC50 (the source's name)
  CC50: 33.5 µM
[4]; Homo sapiens, UACC-62
  GI50: 0.95 µM
[4]; Homo sapiens, UACC-62, read-out: percent cell growth promotion
  activity at 10 µM: 13.4%
[4]; Homo sapiens, UACC-62, 5 log dose, 48 h, read-out: LC50 (the source's name)
  CC50: 38.1 µM
[4]; UACC-62, 5 log dose
  TGI: 7.97 µM
[5]; IGROV1, 5 log dose
  GI50: 2.52 µM
  IC (TGI): 30.7 µM
[5]; IGROV1, 5 log dose, 48 h, read-out: LC50 (the source's name)
  CC50: > 100 µM
[5]; IGROV1, single dose 10 μM, read-out: percent cell growth promotion
  activity at 10 µM: 39.7%
[6]; SK-OV-3, 5 log dose
  GI50: 3.05 µM
  IC (TGI): 17.7 µM
[6]; SK-OV-3, 5 log dose, 48 h, read-out: LC50 (the source's name)
  CC50: > 100 µM
[6]; SK-OV-3, single dose 10 μM, read-out: percent cell growth promotion
  activity at 10 µM: 38.2%
[7]; 786-0, 5 log dose
  GI50: 3.09 µM
  IC (TGI): 25.2 µM
[7]; 786-0, 5 log dose, 48 h, read-out: LC50 (the source's name)
  CC50: > 100 µM
[7]; 786-0, single dose 10 μM, read-out: percent cell growth promotion
  activity at 10 µM: 50.4%
[8]; 5 log dose
  GI50: 1.12 µM
  IC (TGI): 7.12 µM
[8]; [14]
  CC50: > 100 µM
[8]; [15]
  activity at 10 µM: 22.4%
[9]; 5 log dose
  GI50: 4.58 µM
  IC (TGI): 37.2 µM
[9]; [14]
  CC50: > 100 µM
[9]; [15]
  activity at 10 µM: 26.4%
[10]; PC-3, 5 log dose
  GI50: 2.32 µM
  IC (TGI): 11 µM
[10]; PC-3, 5 log dose, 48 h, read-out: LC50 (the source's name)
  CC50: 55.4 µM
[10]; PC-3, single dose 10 μM, read-out: percent cell growth promotion
  activity at 10 µM: 1.46%
[11]; MDA-MB-231
  GI50: 3.4 µM
[11]; MDA-MB-231, read-out: TGI
  IC (TGI): 15.9 µM
[11]; MDA-MB-231, read-out: percent cell growth promotion
  activity at 10 µM: 36.6%
[11]; MDA-MB-231, MDA-MDA 231/ATCC, 5 log dose, 48 h, read-out: LC50 (the source's name)
  CC50: 64.9 µM
[12]; Hs-578T
  GI50: 3.83 µM
[12]; Hs-578T, read-out: TGI
  IC (TGI): 27.7 µM
[12]; Hs-578T, read-out: percent cell growth promotion
  activity at 10 µM: 58.3%
[12]; HS 578T, 5 log dose, 48 h, read-out: LC50 (the source's name)
  CC50: > 100 µM
[13]; BT-549
  GI50: 2.15 µM
[13]; BT-549, read-out: TGI
  IC (TGI): 9.28 µM
[13]; BT-549, read-out: percent cell growth promotion
  activity at 10 µM: 15.7%
[13]; BT-549, 5 log dose, 48 h, read-out: LC50 (the source's name)
  CC50: > 100 µM
